Measurements from paper PMC10455802, “A New Mild Method for Synthesis of Marine Alkaloid Fascaplysin and Its Therapeutically Promising Derivatives” (Marine Drugs, 2023).

Columns and labels:
[1] = system: PC-3 cells (human prostate cancer); experiment: MTT assay, PC-3; assay type: cell-based; conditions: PC-3, 48 h, mean ± SD
Description: (§1) To investigate the effect of the tert-butyl group on anticancer activity and selectivity, we evaluated the cytotoxic activity of unsubstituted fascaplysin (1) and 6-tert-butylfascaplysin (4) in various cancer and non-cancer cell lines using the well-established MTT method (Table 4). The effects on the human prostate cancer cells PC3 and DU145 (hormone-independent cells), 22Rv1 (partially hormone-independent cells), and LNCaP (hormone-sensitive cells), as well as on the normal (non-cancerous) human cells PNT2, MRC-9, and HEK293, were investigated. The mean cytotoxicity of compound 4 towards either cancerous or non-cancerous cells decreased by ~2-fold compared to that of fascaplysin (1).
(§2) Cell lines PC-3, DU145, 22Rv1, and LNCaP (human prostate cancer), as well as PNT2 (human prostate non-cancer), were purchased from ATCC (Manassas, VA, USA). Human embryonic kidney cells HEK 293T and human fibroblasts MRC-9 cell lines were purchased from ECACC (Salisbury, UK). […] The cells were cultured at 37 °C as monolayers in a humidified atmosphere of 5% CO2. […]
(§3) The cytotoxic activity of the synthesized compounds was examined using an MTT assay, which was performed as previously reported. […] The absorbance of the DMSO solutions was measured using a TECAN Infinite F200PRO reader (Männedorf, Switzerland). IC50 were calculated with the GraphPad Prism v.9.1.1 (San Diego, CA, USA).

[2] = system: 22Rv1 cells (human prostate cancer); experiment: MTT assay, 22Rv1; assay type: cell-based; conditions: 22Rv1, 48 h, mean ± SD
Description: as §1, §2, §3

[3] = system: DU145 cells (human prostate cancer); experiment: MTT assay, DU145; assay type: cell-based; conditions: DU-145, DU145, 48 h, mean ± SD
Description: as §1, §2, §3

[4] = system: LNCaP cells (human prostate cancer); experiment: MTT assay, LNCaP; assay type: cell-based; conditions: 48 h, mean ± SD
Description: as §1, §2, §3

[5] = system: PNT2 cells (human prostate non-cancer); experiment: MTT assay, PNT2; assay type: cell-based; conditions: PNT2, 48 h, mean ± SD
Description: as §1, §2, §3

[6] = system: MRC-9 cells (human fibroblasts); experiment: MTT assay, MRC-9; assay type: cell-based; conditions: MRC9, MRC-9, 48 h, mean ± SD
Description: as §1, §2, §3

[7] = system: HEK293 cells (human embryonic kidney); experiment: MTT assay, HEK293; assay type: cell-based; conditions: HEK293, 48 h, mean ± SD
Description: as §1, §2, §3

[8] = system: human prostate cancer cells PC-3, 22Rv1, DU145, LNCaP; experiment: MTT assay, cancer cells (average); assay type: cell-based; conditions: mean of PC-3, 22Rv1, DU145, LNCaP
Description: as §1, §2, §3

[9] = system: normal (non-cancerous) human cells PNT2, MRC-9, HEK293; experiment: MTT assay, non-cancer cells (average); assay type: cell-based; conditions: mean of PNT2, MRC-9, HEK293
Description: as §1, §2, §3

[10] = system: double-stranded calf thymus DNA; experiment: Thiazole orange displacement (DNA intercalation assay); assay type: binding; conditions: compared to fascaplysin (1)
Description: As the intercalation into DNA is considered an important component of the biological mechanism of action of fascaplysin, we evaluated and compared this activity for the synthesized 6-tert-butylfascaplysin (4) and unsubstituted fascaplysin (1). The drug–DNA complex formation was assessed by a fluorescent intercalator displacement assay based on the detachment of the thiazole orange (TO) intercalating agent from the DNA duplex by the tested compounds. The half-maximal concentrations for the effective displacement of TO from the DNA complex were calculated and are presented in Figure 3. In this experiment, the well-established DNA-binding compound, propidium iodide (PI), was used as a positive control.
A thiazole displacement assay was performed to measure the DNA intercalation activity. A mixture, containing 1 μM of double-stranded calf thymus DNA (recalculated as a concentration of base pairs) and 2 μM of thiazole orange (TO) staining agent dissolved in H2O, was used. The fascaplysins were added at concentrations of 0.39–25 μM. The DMSO concentration in the samples was not more than 0.02%. […] TO fluorescence was measured 7 min post-incubation at room temperature using a multimodal plate reader TECAN Spark (Männedorf, Switzerland) at the excitation λ = 480 nm. Fluorescence was recorded at λ = 530 nm with the bandwidth 10 nm. […]

[11] = system: human prostate cancer cells and normal (non-cancerous) human cells; experiment: MTT assay, cancer and non-cancer cell lines together (selectivity, overall cytotoxicity); assay type: cell-based
Description: as §1
Cell lines PC-3, DU145, 22Rv1, and LNCaP (human prostate cancer), as well as PNT2 (human prostate non-cancer), were purchased from ATCC (Manassas, VA, USA). Human embryonic kidney cells HEK 293T and human fibroblasts MRC-9 cell lines were purchased from ECACC (Salisbury, UK). […] The cells were cultured at 37 °C as monolayers in a humidified atmosphere of 5% CO2. The culture mediums used for cultivation and experiments: for PNT2, LNCaP, 22Rv1, PC-3, and DU145 cells—RPMI Glutamax^TM-I medium (gibco® Life Technologies^TM, Paisley, UK), supplemented with 10% FBS (gibco® Life Technologies^TM) and 1% penicillin/streptomycin (Invitrogen, Waltham, MA, USA); for MRC-9 and HEK 293 cells—DMEM GlutamaxTM-I medium (gibco® Life Technologies^TM), supplemented with 10% FBS and 1% penicillin/streptomycin.
as §3, with “reported. In brief, the cells were seeded in 96-well plates (6000 cells/well) and incubated overnight. The medium was replaced with fresh medium containing the tested drugs, and the cells were incubated for an additional 48 h.” for “reported.”

[12] = assay type: physicochemical
Description: (§4) It was proposed based on the HRMS data, and its obtainment can be explained by the tendency towards oxidation of the fragment of p-hydroxyaminophenol of compound 26 (Scheme 6).
Method A. Freshly distilled BF3·OEt2 (0.02 mL, […]) in 2 mL of dry acetonitrile was slowly added to a stirred solution of 3 (5 mg, 0.01 mmol) and anhydrous NaI (2 mg, […]) in 5 mL of dry acetonitrile at 0 °C for 10–15 min. The mixture was stirred at 0 °C for 2 h and then for another 8 h at room temperature. The reaction was monitored by TLC. The formation of a rapidly oxidizing compound, presumably compound 27, with by-products was observed.
Method B. To 5 mg of 9-benzyloxyfascaplysin (0.01 mmol) in 5 mL of ethanol in a 10 mL flat-bottom flask, a catalytic amount of 10% palladium on carbon was added; this was sealed with a septum and left to stir under a hydrogen atmosphere on a magnetic stirrer at room temperature for 16 h. The reaction mixture changed color to green after 15 min. The progress of the reaction was monitored by TLC. The formation of a rapidly oxidizing compound, presumably compound 27, with by-products was observed.

[13] = Solubility observation of debenzylation product; assay type: physicochemical; conditions: product of benzyl removal from 3, presumably quinoid compound
Description: as §4

Row | Structure (SMILES) | IC50 [1] [nM] | IC50 [2] [nM] | IC50 [3] [nM] | IC50 [4] [nM] | IC50 [5] [nM] | IC50 [6] [nM] | IC50 [7] [nM] | IC50 [8] [nM] | IC50 [9] [nM] | fold less effective at displacing TO from the fluorescent complex with DNA than 1 [10] [fold] | IC50 ([11]; Homo sapiens, all tested cancer and non-cancer cell lines, read-out: IC50 in either cell line) [nM] | Selectivity index (SI) ([11]; SI = mean [IC50 non-cancer cells]/mean [IC50 cancer cells]) | fold decrease of mean cytotoxicity compared to fascaplysin (1) ([11]; towards either cancerous or non-cancerous cells) | chemical stability [12] | solubility [13]
1 | O=C1c2ccccc2-[n+]2ccc3c([nH]c4ccccc43)c21 [Compound 1, fascaplysin] | 766 ± 126 | 242 | 798 ± 54 | 409 ± 20 | 457 ± 75 | 890 ± 46 | 458 ± 190 | 554 | 602 |  |  |  |  |  | 
2 | CC(C)(C)c1cc2c([nH]c3ccccc32)c2[n+]1-c1ccccc1C2=O [Compound 4, 6-tert-butylfascaplysin] | 1100 ± 76 | 580 ± 73 | 1730 ± 172 | 1330 ± 240 | 1820 ± 448 | 1370 ± 424 | 348 ± 90 | 1190 | 1180 | 7 | ≤ 2000 | 0.99 | ~ 2 fold |  | 
3 | O=C1c2ccccc2-[n+]2ccc3c([nH]c4ccc(O)cc43)c21 [Compound 26, 9-hydroxyfascaplysin] |  |  |  |  |  |  |  |  |  |  |  |  |  | chemically highly unstable | 
4 | O=c1ccc2nc3c(cc[n+]4c5ccccc5c(=O)c34)c-2c1 [Compound 27] |  |  |  |  |  |  |  |  |  |  |  |  |  |  | extremely poorly soluble
